Data from patent publication US10758620B2, “Potentiated antimicrobial agents” (SEPTEOS, priority 2014, dated 2020).
Like-named read-outs stand apart in the source and are kept apart here.

Columns and labels:
Type in all cases: cell-based
Escherichia coli = test: MIC measurement in agar medium (dilution test), Coli; conditions: potentiator alone
From the text: (§1) Inhibitory minimum concentration measurement tests are made in a solid agar medium according to international standards in force (CLSI M7-A9 Jan 12 standards): dispersion of the compounds to be tested in a Mueller Hinton gelose. An adaptation relating to the hydrophobicity of compounds and compositions is however necessary to disperse them in the medium: dilution of the compounds in a solvent. The compounds and compositions incorporated in the agar medium can be diluted beforehand in one or more solvents (Tween® 80 diluted with water, Tween® 80 diluted with […], DMSO diluted with water). The strains are deposited onto the agar surface with a steers apparatus. In the examples, different dissolution methods for products are tested in parallel to circumvent the problems of water/solvent distribution coefficient of the molecules (antimicrobial and potentiator) whereas the bacteria grow only in the aqueous phase. The technical requirement will not intervene in in vivo tests. The same dilution methods can be implemented in a liquid medium (microplates and tubes). The same methodology is implemented with fungi. […] MIC measurement: the minimum inhibitory concentration measurement tests are made in an agar solid medium according to international standards in force (CLSI standards), according to the previously defined protocol. […] The booster contribution as compared with the MIC of the antibiotic alone is expressed in a (MIC ATB)/(MIC ATB+booster) ratio. Thereby, gains are defined: […]

Staphylococcus = test: MIC measurement in agar medium (dilution test), Staph; conditions: potentiator alone
From the text: as §1

Pseudomonas Strain 08131 = test: Etest, Pseudomonas Strain 08131; conditions: for MIC: Pseudomonas, STRAIN08131, Strain 08131, read-out: MIC of Pipera tazo; for MIC of Meropenem: Strain 08131
From the text: (§2) The corresponding tests are made based on the usual MIC test: the Etest® (Biomerieux) strip is deposited onto the surface of a seeded agar medium in which the booster has been incorporated. This test enables solvent effect risks, that is a possible interaction with the solvent used in vitro, to be minimised.
(§3) The control corresponds to the test made without cineol. A control is made in each solvent tested: distilled water, Tween/water and DMSO.
(§4) ED control=antibiotic alone in distilled water
(§5) DMSO control=antibiotic alone in DMSO
(§6) TE control=antibiotic alone in Tween® 80

Pseudomonas Strain 08132 = test: Etest, Pseudomonas Strain 08132; conditions: booster 1 mg/L in agar, Tween/water
From the text: as §2, §3, §4, §5, §6

E. Coli Strain 8150 = test: Etest, E. Coli Strain 8150; conditions: for MIC: Escherichia coli, read-out: MIC of Pipera tazo, Strain 8150; for MIC of Meropenem / MIC of Tigecycline / MIC of Pipera tazo: Strain 8150
From the text: as §2, §3, §4, §5, §6

MRSA 10178 = test: Etest, staphylococci MRSA 10178; conditions: MRSA 10178
From the text: as §2, §3, §4, §5, §6

MSSA 8237 = test: Etest, staphylococci MSSA 8237; conditions: for MIC: Staphylococcus aureus, MSSA
From the text: as §2, §3, §4, §5, §6

[1] = system: Strain 09003, methicillin resistant S. aureus (MRSA); test: Resistance test (resistant mutants), Strain 09003; conditions: MRSA, text after Table 15
Description: After 48 h incubation, the presence or absence of colonies likely to be resistant mutants is observed.
ED control or DMSO=only distilled water or DMSO is added
Ciprofloxacine DMSO: addition of Ciprofloxacine in DMSO

[2] = system: methicillin resistant S. aureus (MRSA) strains 09003, 10168; test: MIC of the potentiator used alone on the strains of Examples 3 and 4; conditions: Staphylococcus aureus, on these strains
[3] = booster 1 mg/L in agar, Tween/water
[4] = booster 4 mg/L in agar, Tween/water
[5] = booster 16 mg/L in agar, Tween/water
[6] = MSSA 8237, booster 1 mg/L in agar, DMSO
[7] = MSSA 8237, booster 1 mg/L in agar, Tween/water
[8] = MSSA 8237, booster 4 mg/L in agar, DMSO
[9] = MSSA 8237, booster 4 mg/L in agar, Tween/water
[10] = MSSA 8237, booster 16 mg/L in agar, DMSO
[11] = MSSA 8237, booster 16 mg/L in agar, Tween/water

In the case of `CC(=O)OCC=Cc1ccccc1` [AC, cinnamyl acetate], the “MIC 50” value (Escherichia coli; solvent DMSO) is reported as 1.00%, the “MIC 90” value (Escherichia coli; solvent DMSO) is reported as 1.00% and the “MIC 50” value (Escherichia coli; solvent Tween/prop glyc) is reported as >1%. For the same molecule, the “MIC 90” value (Escherichia coli; solvent Tween/prop glyc) was >1%, the “MIC 50” value (Escherichia coli; solvent Tween/water) was >1% and the “MIC 90” value (Escherichia coli; solvent Tween/water) was >1%. The “MIC 50” value (Escherichia coli; solvent water/water) was >1%, the “MIC 90” value (Escherichia coli; solvent water/water) was >1% and the “MIC 50” value (Staphylococcus; solvent DMSO) was 1.00%. The “MIC 90” value (Staphylococcus; solvent DMSO) was 1.00%, the “MIC 50” value (Staphylococcus; solvent Tween/prop glyc) was >1% and the “MIC 90” value (Staphylococcus; solvent Tween/prop glyc) was >1%. For the same molecule, the “MIC 50” value (Staphylococcus; solvent Tween/water) was >1%, the “MIC 90” value (Staphylococcus; solvent Tween/water) was >1% and the “MIC 50” value (Staphylococcus; solvent water/water) was >1%. For the same molecule, the “MIC 90” value (Staphylococcus; solvent water/water) was >1%, the MIC (Pseudomonas Strain 08131; booster 1 mg/L in agar, DMSO) was 6 µg/mL and the MIC (Pseudomonas Strain 08131; [3]) was 6 µg/mL. For the same molecule, the MIC (Pseudomonas Strain 08131; booster 4 mg/L in agar, DMSO) was 3 µg/mL, the MIC (Pseudomonas Strain 08131; [4]) was 3 µg/mL and the MIC (Pseudomonas Strain 08131; booster 16 mg/L in agar, DMSO) was 3 µg/mL. For the same molecule, the MIC (Pseudomonas Strain 08131; [5]) was 3 µg/mL, the “MIC of Meropenem” value (Pseudomonas Strain 08131; booster 1 mg/L in agar, DMSO) was 1.5 µg/mL and the “MIC of Meropenem” value (Pseudomonas Strain 08131; [3]) was 2 µg/mL. For the same molecule, the “MIC of Meropenem” value (Pseudomonas Strain 08131; booster 4 mg/L in agar, DMSO) was 0.75 µg/mL, the “MIC of Meropenem” value (Pseudomonas Strain 08131; [4]) was 0.5 µg/mL and the “MIC of Meropenem” value (Pseudomonas Strain 08131; booster 16 mg/L in agar, DMSO) was 0.75 µg/mL. For the same molecule, the “MIC of Meropenem” value (Pseudomonas Strain 08131; [5]) was 0.38 µg/mL, the “MIC of Meropenem” value (Pseudomonas Strain 08132) was 8 µg/mL and the MIC (E. Coli Strain 8150; booster 1 mg/L in agar, DMSO) was 0.75 µg/mL. The MIC (E. Coli Strain 8150; [3]) was 0.5 µg/mL, the “MIC of Meropenem” value (E. Coli Strain 8150; booster 1 mg/L in agar, DMSO) was 0.023 µg/mL and the “MIC of Tigecycline” value (E. Coli Strain 8150; booster 1 mg/L in agar, DMSO) was 0.064 µg/mL. The “MIC of Meropenem” value (E. Coli Strain 8150; [3]) was 0.016 µg/mL, the “MIC of Tigecycline” value (E. Coli Strain 8150; [3]) was 0.064 µg/mL and the “MIC of Meropenem” value (E. Coli Strain 8150; booster 4 mg/L in agar, DMSO) was “<”. For the same molecule, the “MIC of Pipera tazo” value (E. Coli Strain 8150; booster 4 mg/L in agar, DMSO) was “<”, the “MIC of Tigecycline” value (E. Coli Strain 8150; booster 4 mg/L in agar, DMSO) was “<” and the “MIC of Meropenem” value (E. Coli Strain 8150; [4]) was “<”. The “MIC of Pipera tazo” value (E. Coli Strain 8150; [4]) was “<”, the “MIC of Tigecycline” value (E. Coli Strain 8150; [4]) was “<” and the “MIC of Meropenem” value (E. Coli Strain 8150; booster 16 mg/L in agar, DMSO) was “<”. The “MIC of Pipera tazo” value (E. Coli Strain 8150; booster 16 mg/L in agar, DMSO) was “<”, the “MIC of Tigecycline” value (E. Coli Strain 8150; booster 16 mg/L in agar, DMSO) was “<” and the “MIC of Meropenem” value (E. Coli Strain 8150; [5]) was “<”. For the same molecule, the “MIC of Pipera tazo” value (E. Coli Strain 8150; [5]) was “<”, the “MIC of Tigecycline” value (E. Coli Strain 8150; [5]) was “<” and the “MIC of Cefoxitine” value (MRSA 10178; booster 1 mg/L in agar, DMSO) was 4 µg/mL. The “MIC of Tigecycline” value (MRSA 10178; booster 1 mg/L in agar, DMSO) was 0.125 µg/mL, the “MIC of Cefoxitine” value (MRSA 10178; [3]) was 4 µg/mL and the “MIC of Tigecycline” value (MRSA 10178; [3]) was 0.125 µg/mL. The “MIC of Cefoxitine” value (MRSA 10178; booster 4 mg/L in agar, DMSO) was 1 µg/mL, the “MIC of Tigecycline” value (MRSA 10178; booster 4 mg/L in agar, DMSO) was 0.047 µg/mL and the “MIC of Cefoxitine” value (MRSA 10178; [4]) was 0.75 µg/mL. The “MIC of Tigecycline” value (MRSA 10178; [4]) was 0.047 µg/mL, the “MIC of Cefoxitine” value (MRSA 10178; booster 16 mg/L in agar, DMSO) was <0.016 µg/mL and the “MIC of Tigecycline” value (MRSA 10178; booster 16 mg/L in agar, DMSO) was <0.016 µg/mL. The “MIC of Cefoxitine” value (MRSA 10178; [5]) was <0.016 µg/mL, the “MIC of Tigecycline” value (MRSA 10178; [5]) was <0.016 µg/mL and the “MIC of Cefoxitine” value (MSSA 8237; [6]) was 2 µg/mL. The “MIC of Meropenem” value (MSSA 8237; [6]) was 0.25 µg/mL, the “MIC of Penicillin G” value (MSSA 8237; [6]) was 0.25 µg/mL and the “MIC of Cefoxitine” value (MSSA 8237; [7]) was 3 µg/mL. For the same molecule, the “MIC of Meropenem” value (MSSA 8237; [7]) was 0.25 µg/mL, the “MIC of Penicillin G” value (MSSA 8237; [7]) was 0.5 µg/mL and the “MIC of Cefoxitine” value (MSSA 8237; [8]) was 3 µg/mL. For the same molecule, the “MIC of Meropenem” value (MSSA 8237; [8]) was 0.19 µg/mL, the “MIC of Penicillin G” value (MSSA 8237; [8]) was 0.19 µg/mL and the “MIC of Cefoxitine” value (MSSA 8237; [9]) was 2 µg/mL. The “MIC of Meropenem” value (MSSA 8237; [9]) was 0.19 µg/mL, the “MIC of Penicillin G” value (MSSA 8237; [9]) was 0.125 µg/mL and the “MIC of Cefoxitine” value (MSSA 8237; [10]) was <0.016 µg/mL. The “MIC of Meropenem” value (MSSA 8237; [10]) was <0.002 µg/mL, the “MIC of Penicillin G” value (MSSA 8237; [10]) was <0.002 µg/mL and the “MIC of Cefoxitine” value (MSSA 8237; [11]) was 1.5 µg/mL. The “MIC of Meropenem” value (MSSA 8237; [11]) was 0.064 µg/mL, the “MIC of Penicillin G” value (MSSA 8237; [11]) was 0.064 µg/mL and the MIC (MSSA 8237; MSSA 8237, booster 1 mg/L in agar, DMSO, read-out: MIC of Clindamycine) was 0.047 µg/mL. It also gave an MIC (MSSA 8237; MSSA 8237, booster 1 mg/L in agar, Tween/water, read-out: MIC of Clindamycine) of 0.047 µg/mL, an MIC (MSSA 8237; MSSA 8237, booster 4 mg/L in agar, DMSO, read-out: MIC of Clindamycine) of 0.047 µg/mL and an MIC (MSSA 8237; MSSA 8237, booster 4 mg/L in agar, Tween/water, read-out: MIC of Clindamycine) of 0.064 µg/mL. The MIC (MSSA 8237; MSSA 8237, booster 16 mg/L in agar, DMSO, read-out: MIC of Clindamycine) was < 0.016 µg/mL, the MIC (MSSA 8237; MSSA 8237, booster 16 mg/L in agar, Tween/water, read-out: MIC of Clindamycine) was 0.125 µg/mL and the MIC (MSSA 8237; read-out: MIC of Pipera tazo, MSSA 8237, booster 1 mg/L in agar, DMSO) was 0.75 µg/mL. For the same molecule, the MIC (MSSA 8237; read-out: MIC of Pipera tazo, MSSA 8237, booster 1 mg/L in agar, Tween/water) was 1 µg/mL, the MIC (MSSA 8237; read-out: MIC of Pipera tazo, MSSA 8237, booster 4 mg/L in agar, DMSO) was 0.5 µg/mL and the MIC (MSSA 8237; read-out: MIC of Pipera tazo, MSSA 8237, booster 4 mg/L in agar, Tween/water) was 0.5 µg/mL. The MIC (MSSA 8237; read-out: MIC of Pipera tazo, MSSA 8237, booster 16 mg/L in agar, Tween/water) was 0.38 µg/mL, the “occurrence of mutants on addition of the compound to ciprofloxacine” value [1] was “does not cause the occurrence of mutants any longer” and the MIC [2] was > 10000 µg/mL.
